# Experimental data reported in patent US11484608B2, “Non-invasive assessment of hepatic mitochondrial metabolism by positional isotopomer NMR tracer analysis (PINTA)” (YALE UNIVERSITY, priority 2017, dated 2022).
# Like-named read-outs stand apart in the source and are kept apart here.
# How the values were obtained:
# [1] = system: primary mouse hepatocytes; assay: In vitro glucose production, VPC and lipolysis in isolated hepatocytes; assay type: cell-based; details: isolated hepatocytes, 1 mM hydroxymalonate
# Description: For in vitro glucose production and lipolysis studies, primary mouse hepatocytes were isolated by the Yale Liver Center. Following removal of cell debris by Percoll density gradient centrifugation, cells were plated on 6-well collagen-I coated dishes (4.0×10^5 cells/well) in 2 ml recovery media (DMEM High Glucose containing 10% FBS, 2% penicillin-streptomycin, 100 nM dexamethasone, 1 nM insulin, and 10 mM HEPES). After incubation for 6 hr at 37° C. and 5% CO2, the attached cells were washed once in 1×PBS and then incubated overnight in 2 ml Low Glucose Culture Media (DMEM Low Glucose supplemented with 10% FBS, 2% penicillin-streptomycin and 10 mM HEPES for glucose production studies) or Serum Free Low Glucose Culture Media (DMEM Low Glucose supplemented with 0.5% fatty acid free BSA, 2% penicillin-streptomycin and 10 mM HEPES for lipolysis assays). […] After incubation for 8 hr at 37° C. and 5% CO2, cell culture media was collected for analysis of glucose, NEFA, and glycerol concentrations as described above. VPC was determined by measuring VPC/VEGP by PINTA as described above using 300 μL of the collected media, and multiplying this ratio by the measured glucose production rate. In a subset of studies, cells were incubated for 8 hr during the glucose production assay in media containing one of the following agents (all dissolved in 0.5% DMSO), or 0.5% DMSO vehicle: 20 μM ET-18-OCH3 (Santa Cruz), 100 μM U-73122 (Sigma), 30 nM thapsigargin (Sigma), 100 nM vasopressin (Sigma) 50 μM 2-APB (R&D Systems), 70 μM caffeine (Sigma), 1 mM malic enzyme inhibitor hydroxymalonate (Sigma). To inhibit PKA, hepatocytes were incubated in H-89 […] hydrate (Sigma, 25 μM) dissolved in media, or media lacking H-89 as a control. In the insulin treatment studies, hepatocytes were incubated in 1 nM insulin with 5% BSA and glucose production media for the duration of the glucose production assay. In the in vitro atglistatin study, hepatocytes were incubated in 10 μM atglistatin in 0.1% EtOH, or 0.1% EtOH vehicle. All values were normalized to total protein content determined from whole-cell lysates by a BCA protein assay (Thermo Fisher Scientific) according to the manufacturer's instructions and expressed as fold change verses vehicle-treated cells.
# [2] = system: hepatic mitochondrial fluxes (VPC, VCS); assay: PINTA / ex vivo NMR tracer study in rats infused with [3-^13C]lactate and [3-^3H]glucose (Example 1); details: for VPDH/VCS (%) / VPK+ME/VPC+PDH (%): rat liver; for VPDH/VCS (%) / VPK+ME/VPC+PDH (%) / VPC/VEGP (%): 120 min [3-^13C]lactate infusion, mean ± S.E.M.; for VPC/VEGP (%): rats
# Text: Male Sprague-Dawley rats (˜10 weeks of age) were ordered from Charles River (Wilmington, Mass.) at ˜300 g and fed regular chow unless otherwise specified. […] Prior to studies, rats underwent surgery under general isoflurane anesthesia to place polyethylene catheters in the jugular vein and common carotid artery (PE90 and PE50 tubing, respectively; Instech, Plymouth Meeting, Pa.). After 1 week, recovery was verified by confirming that the rats had regained their surgical weight. Unless otherwise specified, all experiments were performed following an overnight fast (16 hrs food withdrawal prior to sacrifice). In both the rodent and human studies, data are represented as the mean of two technical replicates for each subject (i.e. two technical replicates per biological replicate). Sample sizes were selected to give power to detect moderate to large differences between groups (n=5-6 per group), and all animals were included in the final analysis.
# The investigator performing the animal studies was not blinded for practical reasons, but the investigators analyzing fluxes were blinded as to the group allocation.
# The flux calculations required the following equations using [^13C] glucose positional enrichment in plasma or liver, determined by NMR and GC/MS mass spectrometry. VPC is the rate of pyruvate carboxylase flux as determined from the anaplerotic flow into oxaloacetate (OAA). VCS is defined as the flux of the citrate synthase reaction in the citric acid cycle. […] G2 denotes [m+2] glucose arising from the condensation of two singly-labeled trioses.
# GC/MS was used to measure m+1 and m+2 [^13C]glucose enrichment. The total m+1 and m+2 [^13C]glucose enrichment was measured using a pentaacetate derivative: plasma or liver samples were deproteinized using 5 volumes of methanol, dried, and derivatized with 75 μL of 1:1 acetic anhydride:pyridine. After heating to 65° C. for 20 min, the reaction was terminated by adding 25 μL methanol, and m+1 and m+2 (as well as m+3 . . . m+6) were determined by GC/MS (CI mode, m/z 331 [m], 332 [m+1], 333 [m+2], . . . 337 [m+6]). The m+1 and m+2 [^13C] enrichments of the glucose C4C5C6 fragment were determined by generating the aldonitrile pentapropionate derivative: plasma or NMR liver extract samples were dried under N2 gas, and 50 μl hydroxylamine hydrochloride (20 mg/ml in pyridine) were added. The samples were heated at 90° C. for 60 min, then 100 μl propionic anhydride was added, after which the samples were heated at 60° C. for 30 min. Finally, the samples were evaporated under N2 gas, resuspended in ethyl acetate, and the m+1 and m+2 enrichment of the glucose C4C5C6 fragment was measured by GC/MS.
# [^13C]alanine enrichment was measured by GC/MS. [^13C] NMR spectroscopy using the BRUKER TOPSPIN® system was utilized to measure relative positional 13C-enrichment of glucose, and combined with the total [^13C]glucose enrichment ([m+1]+2*[m+2]) measured by GC/MS to calculate the positional enrichment of [13C]glucose.
# Total [^13C]glutamate enrichment was determined by LC-MS/MS. Approximately 100 mg of liver tissue was weighed out and homogenized in 500 μl ice-cold methanol using a TissueLyser, then centrifuged at 4000 rpm for 10 minutes. The supernatant was then purified by centrifugation (4000 rpm, 10 min) through the PALL NANOSEP® filter (100K) (Port Washington, N.Y.). Glutamate 13C enrichment ([m+1], [m+2]) was then assessed by LC-MS/MS using an AB SCIEX QTRAP 6500 (Framingham, Mass.), equipped with a SHIMADZU ultra-fast liquid chromatography (UFLC) system (Columbia, Md.) and electrospray ionization (ESI) source with negative-ion detection. The measured ion pairs were 146/128 (m0), 147/129 (m+1), and 148/130 (m+2).
# Positional enrichment of glucose, glutamate, and alanine was measured by 13C NMR.
# [3] = system: HPA axis, WAT lipolysis, and hepatic gluconeogenesis; assay type: in vivo, rat
# Description: Blood samples were taken at 14, 16, and 18 hr of the fast for measurement of substrate/hormone concentrations and turnover of each tracer, as described below. […] Liver and muscle glycogen concentrations were assessed using amyloglucosidase digestion. Liver TAG content was measured using the method of Bligh and Dyer (Bligh and Dyer, Can. J. Biochem. Physiol. 37, 911-917, 1959): lipids were extracted from livers using 2:1 chloroform:methanol, and the Sekisui triglyceride-SL reagent was used to measure triglyceride content spectrophotometrically. Liver and muscle DAG content and liver acetyl- and malonyl-CoA concentrations were measured by LC-MS/MS as described by Yu and Perry (Yu, et al. J. Biol. Chem. 2002, 277, 50230-50236; Perry, et al., J. Clin. Invest. 2017, 127, 657-669). […] The samples were homogenized in […] ice-cold methanol using a TissueLyser and filtered through a Nanosep filter. LC-MS/MS (AbSCIEX 6500 QTRAP with a Shimadzu ultrafast liquid chromatography system, negative ion mode) was again used to monitor the relevant ion pairs: succinate and [^13C4]succinate, 117/99 and 121/103, respectively; malate and [^13C4]malate, 133/115 and 137/119, respectively; and citrate and [13C6]citrate, 191/173 and 197/179, respectively. […] Hepatic PKCε translocation, gluconeogenic enzyme protein expression, ApoB (antibody from Meridian Life Science, Memphis, Tenn.), and PGC1α (antibody from Santa Cruz Biotechnology, Dallas, Tex.) protein expression were assessed by western blot. Expression of each of these proteins was normalized to GAPDH.
# [4] = system: HPA axis, WAT lipolysis, endogenous glucose production; assay: Leptin dose-response in streptozotocin-induced type 1 diabetic rats; assay type: in vivo, rat; details: T1D rats
# Text: Male Sprague-Dawley rats were ordered from Charles River Laboratories (Wilmington, Mass.) at ˜250 g and were group housed (3 per cage) for 1-2 weeks until they underwent surgery under general isoflurane anesthesia for placement of polyethylene catheters in the common carotid artery (PE50 tubing, Instech Solomon, Plymouth Meeting, Pa.), and the jugular vein (PE90 tubing, Instech), and/or the portal vein (PE50 tubing, Instech), after which they were singly housed until sacrifice. Unless otherwise specified, rats were fed a regular chow diet (Harlan Teklad #2018, Indianapolis, Ind.) throughout, and fasted as described below. […] In order to induce T1D, rats were injected with streptozotocin (65 mg/kg IP, Sigma Aldrich, St. Louis, Mo.) 24 hr prior to the start of a leptin infusion study and were fasted overnight 12 hr after streptozotocin injection.
# In order to examine the physiologic impact of varying doses of leptin on glucose, hormones, and lipolysis, rats were infused with stepwise increasing doses of leptin during a continuous infusion of [1,2,3,4,5,6,6-^2H7]glucose, [U-^13C16]palmitate, [1,1,2,3,3-^2H5] glycerol, and [U-^13C4] β-hydroxybutyrate starting at hour 42 of a 48 hr fast. From 42-43.5 hr of the fast rats were infused with tracer only, from hours 43.5-45 they were infused with 20 pmol/(kg-min) leptin, from hours 45-46.5 they were infused with 60 pmol/(kg-min) leptin, and from 46.5-48 hr the infusion rate was 600 pmol/(kg-min). Blood samples were taken at 43.5, 45, 46.5, and 48 hr for measurement of substrate/hormone concentrations and turnover of each tracer, as described below. In the T1D leptin dose response studies, overnight (12 hr) fasted rats were infused with stepwise increasing dose of leptin during the same tracer infusion as described above. From 12-14 hr of the fast rats were infused with tracer only, from 14-16 hr they were infused with 50 pmol/(kg-min) leptin, and from hours 16-18 they were infused with 600 pmol/(kg-min) leptin. Blood samples were taken at 14, 16, and 18 hr of the fast for measurement of substrate/hormone concentrations and turnover of each tracer, as described below.
# [5] = supraphysiologic leptin treatment
# [6] = supraphysiologic leptin (˜1300 pM)
compound,measurement,setting,value
"O=C(O)C(O)C(=O)O [ME inhibitor, hydroxymalonate]",basal or glucagon-stimulated glucose production or VPC,[1],no impact
same,VPDH/VCS (%),[2],2.0 ± 1.1%
same,VPK+ME/VPC+PDH (%),[2],7.9 ± 2.1%
same,VPC/VEGP (%),[2],50 ± 2%
leptin: leptin hormone infused at stepwise increasing doses,plasma FGF-21 concentrations,[3]; 48-hr fasted rats,dose-dependent reduction
same,plasma growth hormone concentrations,[3]; 48-hr fasted rats,no difference
same,plasma corticosterone,[3]; all three infusion rates,suppressed
same,plasma insulin concentrations,[3]; highest dose,increased
same,increase in plasma epinephrine and norepinephrine concentrations,[3]; highest infusion rate,2- to 3 fold
same,fatty acid and glycerol turnover,[3]; physiologic leptin replacement,suppressed
same,"plasma NEFA, glycerol, β-hydroxybutyrate, and lactate concentrations",[3]; physiologic leptin replacement,suppression
same,hepatic glucose production,[3]; plasma leptin ˜60 pM,lowered
same,plasma glucose concentrations,[3]; plasma leptin ˜60 pM,lowered
same,plasma glucose concentrations and hepatic glucose production,[3]; plasma leptin ˜150 pM and ˜1250 pM,unable to lower
same,"plasma NEFA, glycerol, β-hydroxybutyrate, and lactate concentrations",[3]; supraphysiologic leptin infusions,increases
same,fatty acid and glycerol turnover,[3]; [5],increased
same,hepatic acetyl-CoA content and β-hydroxybutyrate turnover,[3]; [5],increases
same,HPA axis activity,[4]; both doses,suppressed
same,WAT lipolysis,[4]; leptin ˜60 pM,suppression
same,suppression of WAT lipolysis,[4]; leptin ˜1300 pM,abrogated
same,plasma glucose concentrations and endogenous glucose production rates,[4]; physiologic leptin replacement (˜60 pM),marked reduction
same,growth hormone concentrations,[4]; supraphysiologic leptin,without any change
same,increase in plasma catecholamine concentrations,[4]; [6],4 fold
same,plasma glucose concentrations and endogenous glucose production,[4]; [6],increases
"CNC[C@H](O)c1ccc(O)c(O)c1 [Epinephrine, epinephrine]",VPDH/VCS (%),[2],4.3 ± 1.0%
same,VPK+ME/VPC+PDH (%),[2],5.4 ± 0.1%
same,VPC/VEGP (%),[2],67 ± 2%
[13CH3]C(O)C(=O)O (stereo not shown) [[3-^13C]lactate],plasma lactate enrichment,[2]; rats infused with 40 μmol/(kg-min),~45%
